Measured values published in PubChem BioAssay (NCI).
“And” between values parts separate entries of the source, which are not always exact repeats. Identical values can stand only once.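 Exposure lasted 48 hours, with cells grown in 96-well plates and compounds tested at five concentrations. GI50: concentration for 50% inhibition of growth. At the TGI there is no net growth.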

Experiments:
Test in all cases: inhibition of tumour cell growth, NCI panel, 48 h
SN12C renal = tested on: SN12C renal
NCI-H226 lung = tested on: NCI-H226 lung
CAKI-1 renal = tested on: CAKI-1 renal
HCT-15 colon = tested on: HCT-15 colon
M14 melanoma = tested on: M14 melanoma
SF-539 CNS = tested on: SF-539 CNS
U251 CNS = tested on: U251 CNS
OVCAR-8 ovarian = tested on: OVCAR-8 ovarian
LOX IMVI melanoma = tested on: LOX IMVI melanoma
K-562 leukemia = tested on: K-562 leukemia

Row | Structure (SMILES) | TGI (SN12C renal) | TGI (NCI-H226 lung) | TGI (CAKI-1 renal) | TGI (HCT-15 colon) | TGI (M14 melanoma) | TGI (SF-539 CNS) | TGI (U251 CNS) | TGI (OVCAR-8 ovarian) | TGI (LOX IMVI melanoma) | TGI (K-562 leukemia) | GI50 (SN12C renal) [µM] | GI50 (NCI-H226 lung) [µM] | GI50 (CAKI-1 renal) [µM] | GI50 (HCT-15 colon) [µM] | GI50 (M14 melanoma) [µM] | GI50 (SF-539 CNS) [µM] | GI50 (U251 CNS) [µM] | GI50 (OVCAR-8 ovarian) [µM] | GI50 (LOX IMVI melanoma) [µM] | GI50 (K-562 leukemia) [µM]
1 | c1ccc2c(c1)cc(C1NCCc3[nH]cnc31)c1ccccc12 (stereo not given) | > 100 µM | > 68.1 µM | > 100 µM | > 100 µM | 36.7 µM | > 59.9 µM | > 57.7 µM | > 100 µM | 40.7 µM | 41.1 µM |  |  |  |  |  |  |  |  |  | 
2 | COc1ccc2nc3cccc([N+](=O)[O-])c3c(NCCCCCC(=O)O)c2c1 | 1.16 µM | 1.33 µM | 0.284 µM |  | 0.0466 µM | 1.44 µM | 2.46 µM | 2.22 µM | 0.487 µM | 0.0251 µM | 0.131 | 0.306 | 0.0365 | 0.0251 | 0.015 | 0.404 | 0.0222 | 0.0877 | 0.171 | 0.0109
3 | OC(c1ccccc1)(c1ccccc1)c1ccncc1 | > 100 µM | > 100 µM | > 100 µM | > 100 µM | > 100 µM | > 100 µM | > 100 µM | > 100 µM | > 100 µM | > 100 µM |  |  |  |  |  |  |  |  |  | 
4 | COc1ccc(-c2c[nH]c(C(=O)O)c2-c2cc(OC)c(OC)c(OC)c2)cc1 | > 100 µM | > 100 µM | > 100 µM | > 100 µM | > 100 µM | 15.6 µM | > 100 µM | > 100 µM | > 100 µM | > 100 µM | 7.94 | 4.59 | 3.66 | 3.66 | 3.65 | 3.08 | 4.99 | 5.44 | 6.69 | 3.08
5 | CCN(CC)c1c(C(=O)/C=C/c2ccc(OC)cc2)c(-c2ccccc2)nn(C)c1=O | 78.4 µM | 47.9 µM | > 100 µM |  |  | 45.9 µM | 32.7 µM | > 100 µM | 44.9 µM | 49.9 µM |  |  |  |  |  |  |  |  |  | 
6 | Cc1cc(=O)n(-c2ccccc2C)c(C)n1 | > 100 µM | > 100 µM | > 100 µM | > 100 µM | > 100 µM | > 100 µM | > 100 µM | > 100 µM | > 100 µM | > 100 µM |  |  |  |  |  |  |  |  |  | 
7 | COc1ccc(/C(COc2ccc3c(=O)cc(-c4ccccc4)oc3c2)=N\O)cc1 | 36.4 µM | > 50 µM | 28.4 µM | > 50 µM | > 50 µM | 24.3 µM | > 50 µM | > 35.5 µM | 24.4 µM | > 50 µM | 9.36 | 17.7 | 1.83 | 22.8 | 29.1 | 12.8 | 14.8 | 21.4 | 9.4 | 17.5
8 | COc1cc(/C=C/C(=O)c2cccc(Nc3nc(Nc4ccccc4)nc(Nc4ccccc4)n3)c2)cc(OC)c1OC | > 100 µM | > 81 µM | > 26.2 µM | > 100 µM | > 100 µM | 34 µM | > 100 µM | > 100 µM | > 45.1 µM | > 38.8 µM | 20.7 | 17.2 |  | 4.57 | 24.1 | 12 | 11.4 | 0.988 | 6.32 | 1.37
9 | CCc1cc(C(=O)OC)cn1C(=N)c1ccc(Cl)cc1 | > 100 µM | > 100 µM | > 100 µM | > 100 µM | > 100 µM | > 100 µM | > 100 µM | > 100 µM | > 100 µM | > 100 µM |  |  |  |  |  |  |  |  |  | 
10 | COc1cc(C[C@H]2c3cc(OC)c(OC)cc3CCN2C)c(Oc2cc3c(cc2OC)-c2c(OC)c(OC)cc4c2[C@H](C3)N(C)CC4)cc1OC | 39.8 µM and 30.8 µM | 29.4 µM and 34.6 µM | 23.9 µM and 42.6 µM | 26.4 µM and 23.4 µM | 4.36 µM and 3.48 µM | 16.2 µM and 9.41 µM | 8.95 µM and 22.7 µM | 18.5 µM and 35 µM | 14.7 µM and 24.3 µM | 15.6 µM and 5.4 µM | 16.6 | 19.7 | 16.1 | 10.8 | 1.9 | 3.97 | 10.7 | 17 | 9.21 | 1.49
11 | FC(F)(F)c1ccc(Nc2nc(-c3c(C(F)(F)F)nc4ccccn34)cs2)cc1 | 8.28 µM | 4.49 µM | 8.2 µM | 5.64 µM | 1.22 µM | 0.276 µM | 11 µM | 7.74 µM | 7.95 µM | 8.18 µM | 0.297 | 0.358 | 0.0419 | 0.0406 | 0.043 | 0.0383 | 0.0764 | 0.18 | 0.0533 | 0.0396
12 | COc1c(C)c2c(c(O)c1C/C=C(\C)CCC(=O)O)C(=O)OC2 | > 100 µM | > 100 µM | 14.7 µM | > 100 µM | > 100 µM | > 100 µM | > 100 µM | > 100 µM | > 100 µM | > 100 µM | 0.499 | 2.58 | 0.134 | 0.15 | 0.343 | 0.491 | 0.0905 | 0.443 | 0.132 | 0.123
13 | C=C1C(=O)O[C@H]2[C@H]1CC/C(COC(=O)NCc1cn(C)c3ccccc13)=C\CC[C@@]1(C)O[C@@H]21 | 3.01 µM | 20.9 µM | 2.64 µM | 2.17 µM | 2.92 µM | 2.7 µM | 5.24 µM | 5.18 µM | 1.99 µM | 9.26 µM | 1.21 | 4.38 | 1.32 | 0.611 | 1.45 | 1.37 | 1.96 | 1.4 | 0.594 | 0.369
14 | O=[N+]([O-])c1cc(C(F)(F)F)cc([N+](=O)[O-])c1CCl | 3.08 µM | 3.11 µM | 7.37 µM |  | 1.59 µM | 9.23 µM | 14.2 µM | 4.91 µM | 0.274 µM | 1.11 µM |  |  |  |  |  |  |  |  |  | 
15 | CCOc1ccccc1N1C(=O)C(=O)C(c2nc3ccccc3o2)C(=O)C1=O | > 100 µM | > 100 µM | > 100 µM | > 100 µM | > 100 µM | > 100 µM | > 100 µM | > 100 µM | > 100 µM | > 100 µM |  |  |  |  |  |  |  |  |  | 
